Paper PMC6472190, “Enhanced Liver Targeting of Camptothecin via Conjugation with Deoxycholic Acid” (Molecules, 2019)
Read-outs that look alike come from different tables or passages of the source.

How the values were obtained:
[1] = Stability in fresh rat plasma; format: in vitro ADME; settings: 10 μM, 3 h
Protocol: (§1) The stability of G2 and CPT was assessed in SGF, SIF and fresh rat plasma. SGF and SIF were prepared according to a previous report with slight modifications. Briefly, 0.3% (w/v) purified pepsin, 2 g of NaCl and 7 mL of HCl (12 M) were dissolved in 1000 mL of distilled water to obtain SGF (PH 1.2). To make SIF (PH 6.8), 6.8 g of KH2PO4, 1.0% (w/v) purified pancreatin and 77 mL of NaOH (0.2 M) were dissolved in 1000 mL of distilled water. SGF, SIF and rat plasma containing 10 μM G2 or CPT were incubated at 37 °C. At scheduled time points (0, 5, 10, 20, 30, 60, 90, 120, 180 min), 100 μL samples were collected and reaction was quenched immediately by adding 400 μL of ice cold acetonitrile. The mixture was votexed 2 min and centrifuged at 12000 rpm for 10 min. Then, the supernatant was filtered with a filter (0.22 μm) and detected by HPLC.
(§2) To determine the concentration of G2 and CPT in the stability investigation, a C18 (5 μm, 4.6 × 250 mm, Elite, Dalian, China) reverse-phase column was used. The chromatographic separation was performed on isocratic elution with acetonitrile-0.1% formic acid (80:20, v/v) and acetonitrile-0.1% formic acid (60:40, v/v) for G2 and CPT, respectively. Other conditions were the same as cell model.

[2] = Stability in simulated intestinal fluid (SIF); format: in vitro ADME; settings: SIF pH 6.8, 10 μM, 37 °C, 3 h
Protocol: as §1, §2

[3] = Stability in simulated gastric fluid (SGF); format: in vitro ADME; settings: 3 h
Protocol: as §1, §2

[4] = In vivo body distribution and pharmacokinetics after oral administration; set-up: species or system Kunming mice; settings: male, Kunming, mouse
Protocol: For body distribution investigations, 80 male Kunming mice (weight, 18–22 g; age, 6–8 weeks) were used. The animal experiments in this study were performed under the guidance of the care and use of laboratory animals in Zhejiang University of Technology, Hangzhou, China, and conformed to the National Institutes of Health Guide for Care and Use of Laboratory Animals (Publication No. 85-23). After fasting overnight, mice were received a single dose of G2 or CPT (30 mg/kg, calculated as CPT) suspension by gavage. At desired time (0.5, 1, 2, 4, 6, 8, 12 h), animals were sacrificed. Their blood samples were collected by eyeball removal and immediately centrifuged to separate plasma. The organs (heart, liver, spleen, lung, kidney) were removed and weighed before homogenization. And the plasma and tissue homogenate samples were stored at −80 °C until analysis.
For determination of the compound concentration, 200 μL methanol and 100 μL acetonitrile were added to 100 μL plasma or tissue homogenate to precipitate protein, and 5 μL IS (2 μM) was also added. Mixtures were votexed for 2 min and centrifuged at 12,000 rpm for 10 min at 4 °C. Then, supernatant was transferred to a new tube and evaporated by an EZ-2 personal solvent evaporator (Genevac, Suffolk, UK). Finally, 50 μL of 50% acetonitrile (v/v) was added to re-dissolve the samples. After centrifuged at 13,000 rpm for 10 min, the supernatant was used for HPLC analysis.
To determine G2 and CPT concentration in plasma and tissue homogenate, an Inertsil ODS-SP C18 column (5 μm, 4.6 × 250 mm; GL Sciences) was used. The mobile phase was made up of acetonitrile (A) and 0.1% formic acid (B). CPT was separated by an isocratic elution with 35:65 (v/v) A:B. A gradient eluant ((A:B) 0–3 min: 35:65; 3–8 min: from 35:65 to 80:20; 8–20 min: 80:20; 20–21 min: from 80:20 to 35:65; 21–25 min: 35:65) was used to separate G2. Other conditions were the same as cell model.
The pharmacokinetic analysis using a non-compartmental model with the PKSolver pharmacokinetic software (China Pharmaceutical University, Nanjing, China) was conducted to calculate the key parameters of G2 and CPT. In order to evaluate whether the conjugate had the trend of liver targeting, liver targeting index (LTI) was calculated by Equation (1) below:LTI = AUC0–t’ in liver/AUC0–t in plasma (1) where AUC0–t’ in liver is the AUC0–t of drug in liver and AUC0–t in plasma is the AUC0–t of drug in plasma. All the data were presented as mean ± SD. Statistical analysis were performed by Student’s t-test using the SPSS 22.0 statistical software program (IBM company, Denver, CO, USA), and p < 0.05 was used as the criterion for statistical significant.

HepG2 spheroids = assay: Cellular uptake in HepG2 3D spheroid cell model with deoxycholic acid pretreatment; format: cell-based, human; settings: HepG2 3D model
Protocol: The liquid overlay method was employed for the culturing of HepG2 spheroids as described previously. Cells reached logarithmic growth phase were digested by trypsin then centrifuged. The cell number was counted using a hemocytomete and cells were diluted in growth medium to a density of 1 × 10^4 cells/mL. Spheroids were seeded by pipetting 2 mL of the cell suspension into each well of a 6-well ultra-low attachment (ULA) plates (Corning®, Wujiang, China) and incubated for 3 days.
After HepG2 spheroids were prepared as 3.3, they were transferred into 4 mL centrifuge tube and washed twice with HBSS. Then, the spheroids were resuspended with deoxycholic acid at different concentrations and seeded into the 6-well ULA plates again. After being cultured in an incubator for 0.5 h at 37 °C, the spheroids were transferred into 4 mL centrifuge tube and washed twice with HBSS to remove the deoxycholic acid. Then, they were resuspended with 10 μM G2 or CPT and seeded into the 6-well ULA plates. After being cultured in an incubator for 2 h at 37 °C, the spheroids were transferred into 4 mL centrifuge tube and washed three times with HBSS. […]
(§3) Both G2 and CPT were measured by HPLC analysis, which was performed using a Shimadzu HPLC system (Shimadzu, Kyoto, Japan). […] The column was maintained at 30 °C and the absorbance detector wavelength was 363 nm. […]

HepG2 cells [5] = assay: Competitive inhibition of antitumor activity (MTT assay) with deoxycholic acid pretreatment; settings: for effect of deoxycholic acid pretreatment on cytotoxicity: HepG2, 1 μM deoxycholic acid 0.5 h, then 1 μM compound 48 h; for viability at 1 µM: Homo sapiens
Protocol: After reaching logarithmic growth phase, HepG2 cells were passaged and 100 μL of the cell suspension was seeded into 96-well plates at a density of 5 × 10^4 cells/mL, then cells were cultured in an incubator (Thermo Fisher Scientific, Marietta, Ohio, USA) at 37 °C. After reached 80% confluence, cell monolayers were firstly incubated with or without 1 μM deoxycholic acid for 0.5 h. […] Next, cells were further incubated at 37 °C for 48 h. Then 20 μL of MTT reagent (5 mg/mL in PBS) was added and cells were incubated for another 4 h at 37 °C to allow MTT to be metabolized into formazan. Finally, the media was tapped out and 150 μL of DMSO was added to each well to dissolve the formazan crystals. After mixing, the absorbance was quantified at 490 nm using an ELISA Plate Reader (infinite M200 Pro, TECAN, Grodig, Salzburg, Austria).

HepG2 cells [6] = assay: Cellular uptake in HepG2 2D cell model with deoxycholic acid pretreatment; format: cell-based, human; settings: HepG2 2D model, deoxycholic acid 0.5 h, then 10 μM compound 2 h
Protocol: Cellular uptake of G2 and CPT into 2D HepG2 cell model was performed as described previously with slight modifications. […] Then, cells were cultured in an incubator at 37 °C. After reached 80% confluence, cell monolayers were pretreated with deoxycholic acid at different concentrations for 0.5 h. Next, the inhibitor of deoxycholic acid was removed and cells were washed twice with Hank’s balanced salt solution (HBSS). After 2 h incubation with 10 μM G2 or CPT, cells were washed three times with HBSS and digested with 200 μL of trypsin for 2 min to obtain single cell suspensions. Next, the cells were washed three times with cold HBSS and 250 μL of HBSS was added to resuspend the pellets. Then, the cells were lysed by freeze-thaw three times and sonicated for 10 min. […] The compound concentration was calculated by the corresponding standard curve. The protein concentration of the supernatant was determined by the Bradford method based on a standard curve made by desired concentrations of bovine serum albumin. The cellular uptake was presented as the quantity of G2 or CPT associated with 1 mg of cellular protein [32, 33].
as §3

[7] = heart, po, 30 mg/kg, mice, oral 30 mg/kg calculated as CPT
[8] = kidney, po, 30 mg/kg, mice, oral 30 mg/kg calculated as CPT
[9] = liver, po, 30 mg/kg, mice, oral 30 mg/kg calculated as CPT
[10] = lung, po, 30 mg/kg, mice, oral 30 mg/kg calculated as CPT
[11] = plasma, po, 30 mg/kg, mice, oral 30 mg/kg calculated as CPT
[12] = spleen, po, 30 mg/kg, mice, oral 30 mg/kg calculated as CPT

In the case of `CC[C@@]1(O)C(=O)OCc2c1cc1n(c2=O)Cc2cc3ccccc3nc2-1` [CPT, Camptothecin], the “remaining after incubation in rat plasma” value ([1]; fresh rat plasma, 37 °C) is reported as 24.4%, the “degraded after incubation in SIF” value [2] is reported as 16.1% and the “degraded rate after incubation in SGF” value ([3]; SGF pH 1.2, 10 μM, 37 °C) is reported as 37.9%. For the same compound, the MRT inf ([4]; heart, po, 30 mg/kg, heart, mice, oral 30 mg/kg calculated as CPT, read-out: MRT0–∞) was 6.35 ± 2.71 h, the AUC(0-inf) [4, 7] was 3.64 ± 1.61 µM·h and the AUC(0-t) [4, 7] was 2.86 ± 0.983 µM·h. It also gave a Cmax [4, 7] of 954 ± 207 nM, a Tmax [4, 7] of 0.6 ± 0.2 h and an MRT inf ([4]; kidney, po, 30 mg/kg, kidney, mice, oral 30 mg/kg calculated as CPT, read-out: MRT0–∞) of 5.32 ± 0.46 h. It also gave an AUC(0-inf) [4, 8] of 5.45 ± 1.19 µM·h, an AUC(0-t) [4, 8] of 4.83 ± 1.04 µM·h and a Cmax [4, 8] of 1330 ± 218 nM. It also gave a Tmax [4, 8] of 0.8 ± 0.245 h, a Kp ([4]; liver and plasma, mice, oral 30 mg/kg calculated as CPT, read-out: liver targeting index (LTI) = AUC0–t in liver/AUC0–t in plasma) of 4.84 and an MRT inf ([4]; liver, po, 30 mg/kg, liver, mice, oral 30 mg/kg calculated as CPT, read-out: MRT0–∞) of 4.26 ± 0.38 h. It also gave an AUC(0-inf) [4, 9] of 7.46 ± 1.54 µM·h, an AUC(0-t) [4, 9] of 6.95 ± 1.32 µM·h and a Cmax [4, 9] of 2080 ± 243 nM. For the same compound, the Tmax [4, 9] was 1 h, the MRT inf ([4]; lung, po, 30 mg/kg, lung, mice, oral 30 mg/kg calculated as CPT, read-out: MRT0–∞) was 7.25 ± 1.77 h and the AUC(0-inf) [4, 10] was 12.4 ± 4.43 µM·h. For the same compound, the AUC(0-t) [4, 10] was 9.8 ± 2.59 µM·h, the Cmax [4, 10] was 1640 ± 325 nM and the Tmax [4, 10] was 1.2 ± 0.4 h. For the same compound, the MRT inf ([4]; plasma, po, 30 mg/kg, plasma, mice, oral 30 mg/kg calculated as CPT, read-out: MRT0–∞) was 3.22 ± 0.578 h, the AUC(0-inf) [4, 11] was 1.68 ± 0.252 µM·h and the AUC(0-t) [4, 11] was 1.56 ± 0.26 µM·h. It also gave a Cmax [4, 11] of 465 ± 84 nM, a Tmax [4, 11] of 0.5 h and an MRT inf ([4]; spleen, po, 30 mg/kg, spleen, mice, oral 30 mg/kg calculated as CPT, read-out: MRT0–∞) of 6.96 ± 2.95 h. The AUC(0-inf) [4, 12] was 9.29 ± 2.53 µM·h, the AUC(0-t) [4, 12] was 7.56 ± 1.72 µM·h and the Cmax [4, 12] was 1530 ± 195 nM. For the same compound, the Tmax [4, 12] was 0.9 ± 0.2 h, the “effect of deoxycholic acid on cellular uptake” value (HepG2 spheroids; deoxycholic acid 0.5 h, then 10 μM compound 2 h) was “no distinct effect” and the “effect of deoxycholic acid pretreatment on cytotoxicity” value (HepG2 cells [5]) was “no distinct effects”. The “effect of deoxycholic acid pretreatment on uptake” value (HepG2 cells [6]) was “no obvious change”.

With `CC[C@@]1(OC(=O)COC(=O)CC[C@@H](C)[C@H]2CC[C@H]3[C@@H]4CC[C@@H]5C[C@H](O)CC[C@]5(C)[C@H]4C[C@H](O)[C@]23C)C(=O)OCc2c1cc1n(c2=O)Cc2cc3ccccc3nc2-1` [G2, CPT-20 (S)-O-acetate-deoxycholic acid] the “remaining after incubation in rat plasma” value ([1]; rat, plasma) was 42.3%, the “degraded rate after incubation in SGF” value ([3]; 10 μM, pH 1.2) was 15.0% and the “AUC0–t in liver relative to CPT” value ([4]; in vivo, po) was 2.31 fold. The “increase of liver targeting index in comparison to CPT” value ([4]; in vivo, po) was 1.67 fold, the Kp ([4]; in vivo, po, 30 mg/kg) was 8.07 and the MRT inf ([4]; in vivo, po, 30 mg/kg, MRT0–∞) was 4.36 ± 0.645 h. The “decrease of cellular uptake compared to deoxycholic acid-free group” value (HepG2 spheroids; pretreatment with 200 μM deoxycholic acid 0.5 h, 10 μM compound 2 h) was 66.4%, the “effect of deoxycholic acid pretreatment on cytotoxicity” value (HepG2 cells [5]) was “markedly reduced” and the viability at 1 µM (HepG2 cells [5]; HepG2, read-out: cell viability, HepG2, 1 μM compound 48 h, after pretreatment with 1 μM deoxycholic acid for 0.5 h) was 71.1%. For the same compound, the viability at 1 µM (HepG2 cells [5]; HepG2, read-out: cell viability, HepG2, 1 μM compound 48 h, without deoxycholic acid pretreatment) was 51.3%.
